These results are taken from patent EP0211457A2, “Novel (4-substituted-piperazinyl)pyridazines” (JANSSEN PHARMACEUTICA N.V., priority 1985, dated 1987).

Assay [1] has as its system Wistar rats. The assay is described as follows: Acetic Acid-Induced Writhing in Rats Test. The conditions noted are these: Rattus norvegicus, ip, 0.5 ml 1% acetic acid i.p., compound given 15 min after acetic acid, writhes counted 60-75 min after acetic acid, dose reducing to less than 16 writhes in 50% of the animals, read-out: Writhing in Rats Test ED50 in mg/kg body weight. The class given is in vivo. As to the method: The Acetic Acid-Induced Writhing in Rats Test is known to be a useful tool for the evaluation of the analgesic properties of given test compound (see in connection herewith Drug Research, 25, 1505-1509 (1975)).
Wistar rats weighing about 100g were used throughout. They were injected i.p. with 0.5 ml of a 1% aqueous solution of acetic acid and placed in individual glass containers for observation. […] 5 Min. later (15 min. after the acetic acid treatment) the test compound was administered. […] The lowest effective dose in 50% of the test animals (ED₅₀) was determined as that dose in mg/kg body weight capable of reducing the number of writhes during the 15 minutes observation period to less than 16 writhes in 50% of the tested animals.
Said ED₅₀ values for a number of compounds having the formula (I) and the pharmaceutically acceptable acid-addition salts thereof are gathered in Table 1.

The subject of assay [2] is Male Wistar rats. The assay is described as follows: Tail Withdrawal Test. The class given is in vivo. The conditions noted are these: Rattus norvegicus, iv, tail immersed in water at 55°C, dose suppressing the tail withdrawal response for more than 10 seconds in 50% of the animals, read-out: Tail Witdrawal Test ED50 in mg/kg body weight. As to the method:
Male Wistar rats weighing 200g ± 5g were fasted overnight, water being available at libitum. Aqueous solutions, made isotonic with sodium chloride, of the test compounds at various concentrations were administered to the test animals intraveneously (i.v.). The thus treated rats were put into individual restraining cages. At various time periods after administration, the lower 5 cm portion of the tail was immersed into a cup filled with water at a constant temperature of 55°C. The typical tail withdrawal response was evaluated during a 10 sec. period after the immersion. ED₅₀ values in mg/kg body weight were determined as that dose of the test compound capable of suppressing in 50% of the tested animals the typical tail withdrawal response during a time period exceeding 10 seconds. Said ED₅₀ values for a number of compounds having the formula (I) and the pharma- ceutically acceptable acid-addition salts thereof are gathered in Table 1.

Counter-ions that a name gives are not always drawn.

For the molecule `Fc1ccc(/C=C/CN2CCN(c3ccc(Cl)nn3)CC2)cc1` [compound 10], in assay [1], the ED50 was determined as 20 mg/kg. As to `Cl.Cl.Clc1ccc(N2CCN(C/C=C/c3ccccc3)CC2)nn1` [compound 37, (E)-3-chloro-6-[4-(3-phenyl-2-propenyl)-1-piperazinyl]pyridazine dihydrochloride], the results for the ED50 in assay [1] and in assay [2] were 10 mg/kg and less than 40 mg/kg, respectively. For the molecule `Clc1ccc(/C=C/CN2CCN(c3ccc(Cl)nn3)CC2)cc1` [compound 5, (E)-3-chloro-6-[4-[3-(4-chlorophenyl)-2-propenyl]-1-piperazinyl]pyridazine], the ED50 in assay [1] came out at 40 mg/kg.

Turning to `C(=C\c1ccccc1)/CN1CCN(c2cccnn2)CC1` [compound 8], the ED50 in assay [1] amounted to 2.5 mg/kg.

With `C(=C\c1ccccc1)/CN1CCCN(c2ccc(-c3ccccc3)nn2)CC1` [compound 19], in assay [1], the ED50 came out at 10 mg/kg. On to `Brc1ccc(N2CCN(C/C=C/c3ccccc3)CC2)nn1` [compound 3, (E)-3-bromo-6-[4-(3-phenyl-2-propenyl)-1-piperazinyl]pyridazine], for which the ED50 in assay [1] is 10 mg/kg. Take `CC1CN(C/C=C/c2ccccc2)CCN1c1ccc(Cl)nn1` (centres unmarked) [compound 2, (E)-3-chloro-6-[2-methyl-4-(3-phenyl-2-propenyl)-1-piperazinyl]pyridazine monohydrochloride.hemihydrate]: the ED50 worked out at 5 mg/kg in assay [1] and 10 mg/kg in assay [2]. Turning to `Clc1ccc(N2CCN(C/C=C/c3ccccc3)CC2)nn1` [compound 1, (E)-3-chloro-6-[4-(3-phenyl-2-propenyl)-1-piperazinyl]pyridazine], the ED50 in assay [1] was 5 mg/kg; in assay [2], 20 mg/kg.

For `Clc1ccc(N2CCCN(C/C=C/c3ccccc3)CC2)nn1` [compound 7], the ED50 is 20 mg/kg in assay [1] and 40 mg/kg in assay [2]. As for `COc1ccc(N2CCN(C/C=C/c3ccccc3)CC2)nn1` [compound 4, (E)-3-methoxy-6-[4-(3-phenyl-2-propenyl)-1-piperazinyl]pyridazine], the ED50 in assay [1] stood at 5 mg/kg; in assay [2] it was 40 mg/kg. Regarding `COc1ccc(N2CCN(C/C=C/c3ccc(F)cc3)CC2)nn1` [compound 9], the ED50 in assay [1] is 10 mg/kg. Still for that read-out and setting: the value for `COc1ccc(/C=C/CN2CCN(c3ccc(Cl)nn3)CC2)cc1` [compound 14] was 40 mg/kg. As to `[O-][N+]1(C/C=C/c2ccccc2)CCN(c2ccc(Cl)nn2)CC1` [compound 38, (E)-3-chloro-6-[4-(3-phenyl-2-propenyl)-1-piperazinyl]pyridazine, 4-oxide], the figures for the ED50 in assay [1] and in assay [2] were 10 mg/kg and not below 20 mg/kg, respectively.

Consider `Fc1ccc(/C=C/CN2CCN(c3cccnn3)CC2)cc1` [compound 11], for which the ED50 in assay [1] is 40 mg/kg. In the case of `Cc1ccc(/C=C/CN2CCN(c3ccc(Cl)nn3)CC2)cc1` [compound 13], the ED50 in assay [1] is 40 mg/kg. Take `COc1ccc(/C=C/CN2CCN(c3cccnn3)CC2)cc1` [compound 18]: the ED50 in assay [1] was 40 mg/kg. Consider `Clc1ccc(N2CCN(C/C=C/c3cccs3)CC2)nn1` [compound 12], for which the ED50 in assay [1] came to 10 mg/kg.
